Source: US20180338980A1, “AROMATIC SULFONAMIDE DERIVATIVES” (BAYER PHARMA AKTIENGESELLSCHAFT, priority 2015, published 2018)
Where “and” joins values, the source holds several entries; their conditions need not be identical. Identical values can stand only once.

Target: T1, P2X4 (Homo sapiens, UniProt Q99571)
T1 sequence (Q99571 1-388): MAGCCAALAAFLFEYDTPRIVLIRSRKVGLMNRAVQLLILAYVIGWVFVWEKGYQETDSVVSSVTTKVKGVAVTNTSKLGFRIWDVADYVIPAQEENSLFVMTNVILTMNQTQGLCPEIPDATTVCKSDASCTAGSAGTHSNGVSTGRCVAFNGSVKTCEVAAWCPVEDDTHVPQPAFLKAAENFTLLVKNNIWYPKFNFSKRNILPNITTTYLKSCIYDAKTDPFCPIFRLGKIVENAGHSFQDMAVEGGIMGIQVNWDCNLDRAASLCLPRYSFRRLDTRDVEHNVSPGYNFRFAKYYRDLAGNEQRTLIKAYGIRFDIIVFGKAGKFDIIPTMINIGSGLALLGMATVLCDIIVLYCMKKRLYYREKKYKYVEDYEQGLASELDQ
Test: Assay B: human P2X4 receptor cell line, mitochondrial photina luminescence (agonist Bz-ATP at EC50)
Type: cell-based
Design: host or cells: HEK 293 (recombinant, constitutively expressing; with mitochondrial photina in Assay B)
Conditions: HEK human P2X4 cell line, photina luminescence, agonist Bz-ATP at EC50, average; for Emax: read-out: human P2X4 Assay B avg Efficacy
Procedure: The identification of agonists and antagonists of the P2X4 receptor from humans and […] also the quantification of the activity of the compounds of the invention was performed by use of recombinant cell lines. […] The test cell lines constitutively express the mouse or human P2X4 receptors. Stimulation of the receptors with an agonist leads to a conformational change of P2X4 and influx of extracellular calcium ions through the ion channel. The cytoplasmatic calcium transient is detected via the calcium sensitive dye Fluo8 for the mouse P2×4 cell line or in case of the human P2×4 cell line a stably expressed calcium-sensitive photoprotein, mitochondrial photina, which, after reconstitution with the cofactor coelenterazine, emits light in dependence of calcium binding [Bovolenta S, Foti M, Lohmer S, Corazza S., J Biomol Screen. […] The strength of Fluo8 fluorescence signal or photina luminescence signal corresponds to the level of receptor activation. An inhibitor would decrease the signal depending on its potency and concentration.
The resulting light signal is measured immediately in the luminometer.

SMILES | IC50 | Emax
NS(=O)(=O)c1cc(NC(=O)Cc2ccccc2)cc(F)c1Oc1cccc(Cl)c1 [Example 170, N-[4-(3-Chlorophenoxy)-3-fluoro-5-sulfamoylphenyl]-2-phenylacetamide] | > 16000 nM | 36%
Cc1ccccc1CC(=O)Nc1cc(F)c(Oc2cccc(Cl)c2)c(S(N)(=O)=O)c1 [Example 171, N-[4-(3-Chlorophenoxy)-3-fluoro-5-sulfamoylphenyl]-2-(2-methylphenyl)acetamide] | 4910 nM | 65%
CC(C(=O)Nc1ccc(Oc2cccc(Cl)c2)c(S(N)(=O)=O)c1)c1ccccc1 (centres unmarked) [Example 184, N-[4-(3-Chlorophenoxy)-3-sulfamoylphenyl]-2-phenylpropanamide] |  | 53%
C[C@H](C(=O)Nc1ccc(Oc2cccc(Cl)c2)c(S(N)(=O)=O)c1)c1ccccc1 [Example 194, (2S)—N-[4-(3-chlorophenoxy)-3-sulfamoylphenyl]-2-phenylpropanamide] |  | 65%
C[C@@H](C(=O)Nc1ccc(Oc2cccc(Cl)c2)c(S(N)(=O)=O)c1)c1ccccc1 [Example 195, (2R)—N-[4-(3-Chlorophenoxy)-3-sulfamoylphenyl]-2-phenylpropanamide] |  | 64%
COCCN(C)C(=O)c1ccccc1CC(=O)Nc1ccc(Oc2cccc(Cl)c2)c(S(N)(=O)=O)c1 [Example 197, 2-(2-{[4-(3-Chlorophenoxy)-3-sulfamoylphenyl]amino}-2-oxoethyl)-N-(2-methoxyethyl)-N-methylbenzamide] | 4120 nM | 68%
CN(C)C(=O)c1ccccc1CC(=O)Nc1ccc(Oc2cccc(Cl)c2)c(S(N)(=O)=O)c1 [Example 198, 2-(2-{[4-(3-Chlorophenoxy)-3-sulfamoylphenyl]amino}-2-oxoethyl)-N,N-dimethylbenzamide] | 4740 nM | 60%
COCCNC(=O)c1cccc(CC(=O)Nc2ccc(Oc3cccc(Cl)c3)c(S(N)(=O)=O)c2)c1 [Example 201, 3-(2-{[4-(3-Chlorophenoxy)-3-sulfamoylphenyl]amino}-2-oxoethyl)-N-(2-methoxyethyl)benzamide] | 3300 nM | 73%
NS(=O)(=O)c1cc(NC(=O)Cc2ccccc2)ccc1OC1CCC1 [Example 204, N-[4-(Cyclobutyloxy)-3-sulfamoylphenyl]-2-phenylacetamide] | 4040 nM | 60%
NS(=O)(=O)c1cc(NC(=O)Cc2ccccc2)ccc1OC1CCOCC1 [Example 206, 2-Phenyl-N-[3-sulfamoyl-4-(tetrahydro-2H-pyran-4-yloxy)phenyl]acetamide] | 10800 nM | 88%
NS(=O)(=O)c1cc(NC(=O)Cc2ccccc2Cl)ccc1OC1COC1 [Example 216, 2-(2-Chlorophenyl)-N-[4-(oxetan-3-yloxy)-3-sulfamoylphenyl]acetamide] | 3350 nM | 45%
NS(=O)(=O)c1cc(NC(=O)Cc2ccccc2)ccc1OC1CCCC1 [Example 217, N-[4-(Cyclopentyloxy)-3-sulfamoylphenyl]-2-phenylacetamide] | 4030 nM | 67%
CN1CCCC(Oc2ccc(NC(=O)Cc3ccccc3)cc2S(N)(=O)=O)C1 (centres unmarked) [Example 219, N-{4-[(1-Methylpiperidin-3-yl)oxy]-3-sulfamoylphenyl}-2-phenylacetamide] | > 50000 nM | 23%
CN1CCCC(Oc2ccc(NC(=O)Cc3ccccc3Cl)cc2S(N)(=O)=O)C1 (centres unmarked) [Example 220, 2-(2-Chlorophenyl)-N-{4-[(1-methylpiperidin-3-yl)oxy]-3-sulfamoylphenyl}acetamide] | 3810 nM | 77%
CN1CCC(Oc2ccc(NC(=O)Cc3ccccc3)cc2S(N)(=O)=O)C1 (centres unmarked) [Example 221, N-{4-[(1-Methylpyrrolidin-3-yl)oxy]-3-sulfamoylphenyl}-2-phenylacetamide] | > 50000 nM | 30%
CN1CCC(Oc2ccc(NC(=O)Cc3ccccc3Cl)cc2S(N)(=O)=O)C1 (centres unmarked) [Example 222, 2-(2-Chlorophenyl)-N-{4-[(1-methylpyrrolidin-3-yl)oxy]-3-sulfamoylphenyl}acetamide] | 8540 nM and 8060 nM and > 16000 nM | 70%

Now from value to compound:

IC50 | Emax | SMILES
3240 nM | 63% | Cc1cccc(CC(=O)Nc2cc(F)c(Oc3cccc(Cl)c3)c(S(N)(=O)=O)c2)c1 [Example 172, N-[4-(3-Chlorophenoxy)-3-fluoro-5-sulfamoylphenyl]-2-(3-methylphenyl)acetamide]
2240 nM | 63% | NS(=O)(=O)c1cc(NC(=O)Cc2cccnc2)ccc1Oc1cccc(Cl)c1 [Example 181, N-[4-(3-Chlorophenoxy)-3-sulfamoylphenyl]-2-(pyridin-3-yl)acetamide]
462 nM | 97% | NS(=O)(=O)c1cc(NC(=O)Cc2cccc(Cl)c2)ccc1Oc1cccc(Cl)c1 [Example 186, N-[4-(3-Chlorophenoxy)-3-sulfamoylphenyl]-2-(3-chlorophenyl)acetamide]
2560 nM | 71% | NS(=O)(=O)c1cc(NC(=O)Cc2ccncc2)ccc1Oc1cccc(Cl)c1 [Example 188, N-[4-(3-Chlorophenoxy)-3-sulfamoylphenyl]-2-(pyridin-4-yl)acetamide]
429 nM | 54% | Cc1cccc(CC(=O)Nc2ccc(Oc3cccc(Cl)c3)c(S(N)(=O)=O)c2)n1 [Example 189, N-[4-(3-Chlorophenoxy)-3-sulfamoylphenyl]-2-(6-methylpyridin-2-yl)acetamide]
171 nM | 65% | COc1ccc(CC(=O)Nc2ccc(Oc3cccc(Cl)c3)c(S(N)(=O)=O)c2)cc1 [Example 190, N-[4-(3-Chlorophenoxy)-3-sulfamoylphenyl]-2-(4-methoxyphenyl)acetamide]
1060 nM | 79% | Cc1ccc(CC(=O)Nc2ccc(Oc3cccc(Cl)c3)c(S(N)(=O)=O)c2)nc1 [Example 193, N-[4-(3-Chlorophenoxy)-3-sulfamoylphenyl]-2-(5-methylpyridin-2-yl)acetamide]
1960 nM | 70% | NS(=O)(=O)c1cc(NC(=O)Cc2ccccc2)ccc1OC1CCCCC1 [Example 199, N-[4-(Cyclohexyloxy)-3-sulfamoylphenyl]-2-phenylacetamide]
1350 nM | 69% | CNC(=O)c1cccc(CC(=O)Nc2ccc(Oc3cccc(Cl)c3)c(S(N)(=O)=O)c2)c1 [Example 203, 3-(2-{[4-(3-Chlorophenoxy)-3-sulfamoylphenyl]amino}-2-oxoethyl)-N-methylbenzamide]
396 nM | 74% | NS(=O)(=O)c1cc(NC(=O)Cc2ccccc2Cl)ccc1OC1CCC1 [Example 205, 2-(2-Chlorophenyl)-N-[4-(cyclobutyloxy)-3-sulfamoylphenyl]acetamide]
742 nM | 64% | NS(=O)(=O)c1cc(NC(=O)Cc2ccc(Cl)cn2)ccc1Oc1cccc(Cl)c1 [Example 209, N-[4-(3-Chlorophenoxy)-3-sulfamoylphenyl]-2-(5-chloropyridin-2-yl)acetamide]
491 nM | 71% | COCCOc1cccc(CC(=O)Nc2ccc(Oc3cccc(Cl)c3)c(S(N)(=O)=O)c2)c1 [Example 210, N-[4-(3-Chlorophenoxy)-3-sulfamoylphenyl]-2-[3-(2-methoxyethoxy)phenyl]acetamide]
404 nM | 102% | COCCOc1ccccc1CC(=O)Nc1ccc(Oc2cccc(Cl)c2)c(S(N)(=O)=O)c1 [Example 211, N-[4-(3-Chlorophenoxy)-3-sulfamoylphenyl]-2-[2-(2-methoxyethoxy)phenyl]acetamide]
406 nM | 85% | NS(=O)(=O)c1cc(NC(=O)Cc2cccc(OCCO)c2)ccc1Oc1cccc(Cl)c1 [Example 212, N-[4-(3-Chlorophenoxy)-3-sulfamoylphenyl]-2-[3-(2-hydroxyethoxy)phenyl]acetamide]
818 nM | 61% | NS(=O)(=O)c1cc(NC(=O)Cc2ccccc2OCCO)ccc1Oc1cccc(Cl)c1 [Example 213, N-[4-(3-Chlorophenoxy)-3-sulfamoylphenyl]-2-[2-(2-hydroxyethoxy)phenyl]acetamide]
1510 nM | 68% | NS(=O)(=O)c1cc(NC(=O)Cc2ccccc2)ccc1OC1COC1 [Example 215, N-[4-(Oxetan-3-yloxy)-3-sulfamoylphenyl]-2-phenylacetamide]
248 nM | 80% | NS(=O)(=O)c1cc(NC(=O)Cc2ccccc2Cl)ccc1OC1CCCC1 [Example 218, 2-(2-Chlorophenyl)-N-[4-(cyclopentyloxy)-3-sulfamoylphenyl]acetamide]
1850 nM | 82% | NS(=O)(=O)c1cc(NC(=O)Cc2ccc(F)cc2)ccc1Oc1ccc(Cl)cc1 [Example 223, N-[4-(4-Chlorophenoxy)-3-sulfamoylphenyl]-2-(4-fluorophenyl)acetamide]
